One data set relates to OVCAR-3 cells. The data set can be described thus: In vitro anti-proliferative activity assay in cancer cell line OVCAR-3 (CellTiter-Glo, 4- or 7-day). The format is cell-based. As to conditions: 7-day assay; read-out: OVCAR-3 cellular antiproliferation assay IC50. (In general: In ATP-based viability assays light output follows the ATP content of the culture.)
The target of the next data set is KIF18A (Homo sapiens (Human), UniProt Q8NI77). Briefly: KIF18A Biochemical Assay (ATPase, ADP-Glo). For orientation: In ADP-Glo the light output rises with the ADP produced.
The test system of another data set is Caco-2 cell monolayers. Briefly: Caco-2 permeation assay, bidirectional permeability. The format is in vitro ADME. As to conditions: 5 μM, 2 h, Papp(B-A)/Papp(A-B). In short, it runs like this:
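Bidirectional A→B and B→A transport of 5 μM compound in HBSS (10 mM HEPES, pH 7.4), receiver containing 2% BSA, 2 h at 37 °C on 14-day monolayers. Papp from LC-MS/MS peak areas; efflux ratio Papp(B-A)/Papp(A-B), plus recovery. Lucifer Yellow leakage <1% required for monolayer acceptance.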

The source of these data is US20250197428A1, “INHIBITORS OF KIF18A AND USES THEREOF” (ACCENT THERAPEUTICS, INC., priority 2022, published 2025).

Sequence of KIF18A (Q8NI77 1-367): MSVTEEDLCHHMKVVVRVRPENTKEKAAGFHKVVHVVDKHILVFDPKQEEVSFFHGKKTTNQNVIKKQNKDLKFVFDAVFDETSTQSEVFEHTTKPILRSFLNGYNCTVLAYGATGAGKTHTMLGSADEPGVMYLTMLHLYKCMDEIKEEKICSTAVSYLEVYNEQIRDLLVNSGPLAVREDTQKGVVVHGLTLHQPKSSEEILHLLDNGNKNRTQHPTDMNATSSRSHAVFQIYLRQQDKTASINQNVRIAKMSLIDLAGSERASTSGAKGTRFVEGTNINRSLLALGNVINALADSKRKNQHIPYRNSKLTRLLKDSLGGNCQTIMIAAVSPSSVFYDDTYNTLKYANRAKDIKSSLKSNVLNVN
Sequence of KIF18A (P02550 whole entry partner): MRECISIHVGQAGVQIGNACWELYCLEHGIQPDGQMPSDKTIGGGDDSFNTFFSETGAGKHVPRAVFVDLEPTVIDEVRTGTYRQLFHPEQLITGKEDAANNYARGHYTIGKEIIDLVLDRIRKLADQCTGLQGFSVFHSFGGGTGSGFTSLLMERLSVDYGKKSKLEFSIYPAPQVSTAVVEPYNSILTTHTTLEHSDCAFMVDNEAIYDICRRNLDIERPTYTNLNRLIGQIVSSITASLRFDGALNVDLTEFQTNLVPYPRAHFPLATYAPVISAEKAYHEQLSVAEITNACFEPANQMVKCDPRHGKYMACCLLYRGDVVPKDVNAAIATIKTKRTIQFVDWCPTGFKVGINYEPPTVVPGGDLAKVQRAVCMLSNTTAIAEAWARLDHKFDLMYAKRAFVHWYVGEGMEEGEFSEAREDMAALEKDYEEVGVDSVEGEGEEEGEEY
Sequence of KIF18A (P02554 whole entry partner): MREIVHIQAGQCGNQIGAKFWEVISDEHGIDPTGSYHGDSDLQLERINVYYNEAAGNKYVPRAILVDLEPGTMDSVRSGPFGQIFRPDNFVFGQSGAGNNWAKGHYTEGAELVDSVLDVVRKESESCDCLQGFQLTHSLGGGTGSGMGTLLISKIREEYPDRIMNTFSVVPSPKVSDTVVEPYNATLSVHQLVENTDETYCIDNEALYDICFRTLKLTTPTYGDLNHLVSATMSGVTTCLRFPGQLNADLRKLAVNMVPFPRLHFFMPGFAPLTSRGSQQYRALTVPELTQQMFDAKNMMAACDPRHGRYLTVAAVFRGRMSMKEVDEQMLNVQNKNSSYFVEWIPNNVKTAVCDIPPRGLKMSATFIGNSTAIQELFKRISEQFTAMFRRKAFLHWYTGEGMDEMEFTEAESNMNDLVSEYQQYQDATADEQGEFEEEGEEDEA

Turning to `Cc1cc(NC(=O)c2ccc(NS(=O)(=O)CCO)cc2N2CC[C@]3(C(F)F)C[C@@H]3C2)nc(N2CCC(F)(F)CC2)n1` [Example 86], the IC50 is 100 to 500 nM in the data set with OVCAR-3 cells and under 100 nM at KIF18A. For the same molecule, the “Caco-2 assay efflux ratio” value in the data set with Caco-2 cell monolayers was “** (“**” means efflux ratio of <10)”.
